Data reported in EP4772509A1, “KINESIN KIF18A INHIBITOR, AND APPLICATION THEREOF” (Shanghai Apeiron Therapeutics Company Limited, priority 2023, dated 2025).
Read-outs that look alike come from different tables or passages of the source.

How the values were obtained:
HT29 cells = test: CyQuant cell proliferation activity test; type: cell-based; details: HT29 at 2000 cells per well, 3 days, 0.2% DMSO, XLFIT
How it was run: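 Cells seeded at 2000/well in RPMI-1640 with 10% FBS, left overnight, then exposed 3 days at 37 °C, 5% CO2 to a 9-point 3-fold series from 3000 nM (0.2% DMSO). CyQuant signal read after 1 h; IC50 from curve fit.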

OVCAR3 cells = test: Cell proliferation activity test (CyQUANT Direct); type: cell-based; details: 3 days, 0.2% DMSO, CyQUANT fluorescence
How it was run: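 OVCAR3 cells in RPMI-1640 with 10% FBS were seeded, then treated overnight later with compound at final 0–10 µM (0.2% DMSO) for 3 days at 37°C, 5% CO2. Proliferation was read as CyQUANT Direct fluorescence after 60 min at 37°C.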

[1] = molecular target: T1, Human KIF18A (amino acid sequence 1-417) (Homo sapiens, UniProt Q8NI77); test: Enzymatic activity test (ADP-Glo, microtubule-stimulated ATPase); type: biochemical; details: 60 µg/mL microtubules, 25 µM ATP, 2.5 nM KIF18A protein, 120 min at ambient temperature, chemiluminescence; read-out: KIF18A IC50
T1 construct: purchased Viva Biotech (Shanghai) Ltd
T1 sequence (Q8NI77 1-417): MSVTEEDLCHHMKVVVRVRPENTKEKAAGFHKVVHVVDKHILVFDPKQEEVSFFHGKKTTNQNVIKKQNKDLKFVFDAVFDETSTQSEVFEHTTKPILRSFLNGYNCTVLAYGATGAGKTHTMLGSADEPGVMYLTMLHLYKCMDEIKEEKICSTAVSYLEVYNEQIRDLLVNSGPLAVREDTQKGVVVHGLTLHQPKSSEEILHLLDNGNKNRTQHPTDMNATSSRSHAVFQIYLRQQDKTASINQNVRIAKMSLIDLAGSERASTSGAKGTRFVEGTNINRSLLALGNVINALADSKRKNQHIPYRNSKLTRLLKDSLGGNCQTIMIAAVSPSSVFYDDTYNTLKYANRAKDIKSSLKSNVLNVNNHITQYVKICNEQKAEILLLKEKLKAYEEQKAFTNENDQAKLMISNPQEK
How it was run: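 KIF18A (1-417) at 2.5 nM with 60 µg/mL microtubules and 25 µM ATP, compounds at 0-10 µM final, reacted 120 min at ambient temperature. ADP formed was read by ADP-Glo chemiluminescence after two 30 min room-temperature steps.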

| IC50 (HT29 cells; read-out: HT-29 IC50) [nM] | IC50 (OVCAR3 cells) [nM] | Molecule | IC50 [1] [nM] | IC50 (HT29 cells; Homo sapiens, HT-29, 72 h) [nM] | IC50 (OVCAR3 cells; Homo sapiens, OVCAR-3, 72 h) [nM] |
| --- | --- | --- | --- | --- | --- |
|  |  | Cc1cc2nc(n1)N1CCC(F)(F)C(/C=C\CC3CCN(CC3)c3cc(NS(=O)(=O)CCO)c4c(c3C(=O)N2)CCC4(C)O)C1 (stereo not drawn) [Example 13, (cis)-N-(1^4,1^4-difluoro-5^1-hydroxy-2^6,5^1-dimethyl-4-oxo-5^2,5^3-dihydro-5^1H-3-aza-2(2,4)-pyrimidin-1(1,3),6(1,4)-dipiperidin-5(4,5)-indenocyclononane-8-en-5^7-yl)-2-hydroxyethane-1-sulfonamide] | 294 | 187 | 181 |
| 254 | 178 | N-((3^4Z, 7Z)-1^4,1^4-difluoro-2^6-methyl-3^1H-2(2,4)-pyrimidin-1(1,3),5(1,4)-dipiperidin-3(4,1)-triazole-4(1,2)-benzocyclooct-7-en-4^4-y 1)-2-hydroxyethane-1-sulfonamide [Example 81B] | 491 |  |  |
| 9 | 8 | Cc1cc2nc(n1)N1CCC(F)(F)C(C=CCC3CCN(CC3)c3cc(NS(=O)(=O)CCO)c4c(c3C(=O)N2)CCC4=O)C1 (single isomer, unassigned) [Example 2A, N-(1^4,1^4-difluoro-2^6-methyl-5^1,4-dioxo-5^2,5^3-dihydro-5^1H-3-aza-2(2,4)-pyrimidin-1(1,3),6(1,4)-dipiperidin-5(4,5)-indenoheterocyclonon-8-en-5^7-yl)-2-hydroxyethane-1-sulfonamide] | 35 |  |  |
|  |  | Cc1cc2nc(n1)N1CCC(F)(F)C(CCCc3ccc(cc3)-c3cc(NS(=O)(=O)CCO)ccc3C(=O)N2)C1 (stereo not drawn) [Example 44, N-((1^3S,Z)-1^4,1^4-difluoro-2^6-methyl-3^1H-2(2,4)-pyrimidin-1(1,3),5(1,4)-dipiperidin-3(4,1)-triazole-4(1,2)-benzylcyclooctyl-4^4-yl)-2-hydroxyethane-1-sulfonamide] | 83 | 39 | 27 |
|  |  | Cc1cc2nc(n1)N1CCC(F)(F)C(CCCc3ccc(cc3)-c3cc(NS(=O)(=O)CCO)ccc3C(=O)N2)C1 (single isomer, unassigned) [Example 46A, N-(1^4,1^4-difluoro-2^6-methyl-4-oxo-3-aza-2(2,4)-pyrimidin-1(1,3)-piperidin-5(1,2),6(1,4)-diphenylheterocyclononane-5^4-yl)-2-hydroxyethane-1-sulfonamide] | 117 | 58 | 36 |
|  |  | Cc1cc2nc(n1)N1CCC(F)(F)C(/C=C\CC3CCN(CC3)c3cc(NS(=O)(=O)CCO)c4c(c3C(=O)N2)CCC4)C1 (stereo not drawn) [Example 4, N-(1^4,1^4-difluoro-2^6-methyl-4-oxo-5^2,5^3-dihydro-5^1H-3-aza-2(2,4)-pyrimidin-1(1,3),6(1,4)-dipiperidin-5(4,5)-indenoheterocyclonon-8-en-5^7-yl)-2-hydroxyethane-1-sulfonamide] | 404 | 55 | 49 |
| 23 | 22 | N-((3^4Z, 7Z)-1^4,1^4-difluoro-2^6-methyl-3^1H-2(2,4)-pyrimidin-1(1,3),5(1,4)-dipiperidin-3(4,1)-triazole-4(1,2)-benzocyclooct-7-en-4^4-y 1)-2-hydroxyethane-1-sulfonamide [Example 81A] | 219 |  |  |

| Molecule | IC50 (HT29 cells; read-out: HT-29 IC50) [nM] | IC50 (OVCAR3 cells) [nM] | IC50 [1] [nM] | IC50 (HT29 cells; Homo sapiens, HT-29, 72 h) [nM] | IC50 (OVCAR3 cells; Homo sapiens, OVCAR-3, 72 h) [nM] |
| --- | --- | --- | --- | --- | --- |
| Cc1cc2nc(n1)N1CCC(F)(F)C(C=CCC3CCN(CC3)c3cc(NS(=O)(=O)CCO)c4c(c3C(=O)N2)CNC4=O)C1 (stereo not drawn) [Example 16, N-(6^4,6^4-difluoro-5^6-methyl-2^1,3-dioxo-2^2,2^3-dihydro-2^1H-4-aza-2(5,4)-isoindole-5(4,2)-pyrimidin-1(1,4),6(1,3)-dipiperidineheterocyclonon-7-en-2^7-yl)-2-hydroxyethane-1-sulfonamide] | 95 | 89 | 45 |  |  |
